Drawing on US9556201B2, “Bicyclic pyridines and analogs as sirtuin modulators” (GLAXOSMITHKLINE LLC, priority 2009, dated 2017), this text covers EC1.5 (concentration giving 1.5-fold activation), Emax and IC50 for 29 compounds.

Some results are limits rather than exact numbers.

For one assay, the target named is T1, SIRT1 (Homo sapiens, UniProt Q96EB6).
T1 sequence (Q96EB6 1-747): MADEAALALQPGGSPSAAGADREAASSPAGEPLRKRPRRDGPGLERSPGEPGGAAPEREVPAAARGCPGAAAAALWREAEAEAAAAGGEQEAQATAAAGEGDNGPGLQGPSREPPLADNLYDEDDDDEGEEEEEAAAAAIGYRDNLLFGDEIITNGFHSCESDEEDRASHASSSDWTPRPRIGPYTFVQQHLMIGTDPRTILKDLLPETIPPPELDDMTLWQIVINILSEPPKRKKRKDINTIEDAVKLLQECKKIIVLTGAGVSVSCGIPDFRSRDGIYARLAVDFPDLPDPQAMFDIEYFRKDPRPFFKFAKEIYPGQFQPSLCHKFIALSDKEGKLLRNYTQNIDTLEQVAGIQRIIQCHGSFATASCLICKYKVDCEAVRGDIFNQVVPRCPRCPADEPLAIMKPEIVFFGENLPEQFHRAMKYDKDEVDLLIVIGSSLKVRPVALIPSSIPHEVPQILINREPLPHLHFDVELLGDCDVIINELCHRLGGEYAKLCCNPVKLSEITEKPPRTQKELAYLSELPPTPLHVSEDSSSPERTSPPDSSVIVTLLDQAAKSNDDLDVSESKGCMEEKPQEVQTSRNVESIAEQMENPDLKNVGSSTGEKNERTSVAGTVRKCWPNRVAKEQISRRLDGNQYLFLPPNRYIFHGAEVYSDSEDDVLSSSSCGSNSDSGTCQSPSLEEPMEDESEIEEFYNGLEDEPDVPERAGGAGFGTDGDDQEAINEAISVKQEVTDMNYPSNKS
In words: Mass spectrometry based assay to identify modulators of SIRT1 activity (deacetylation of p53-based acetylated peptide substrate). Format: biochemical. The settings on record: for Emax: 25 min, SIRT1 activation, read-out: % FOLD ACT. (percent maximum fold activation). The method in brief:
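His-tagged human SIRT1 (10 nM, E. coli) incubated 25 min at 25 °C with […] p53-derived acetylated 5TMR peptide and 120 μM βNAD+ in pH 8 Tris-acetate buffer, then formic acid-stopped. Mass spectrometry quantifies acetylated vs deacetylated peptide; nicotinamide and DMSO controls.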

The subject of another assay is TNF. In words: TNF IC50 (column of Table 1; method not in the text shown). The format is cell-based.

Broadly, the IC50 is the point on the concentration scale where inhibition reaches its midpoint. With `O=C(Nc1ccccn1)N1CCc2ccc(-c3cccc(C(F)(F)F)c3)nc21` [Compound 861, N-(pyridin-2-yl)-6-(3-(trifluoromethyl)phenyl)-2,3-dihydro-1H-pyrrolo[2,3-b]pyridine-1-carboxamide], at SIRT1, the EC1.5 (concentration giving 1.5-fold activation) is under 1000 nM and the Emax is over 200%. In the assay on TNF, the IC50 was at least 20 µM.
Take `CC1(C)CCN(C(=O)Nc2cccc(OC[C@@H](O)CO)n2)c2nc(-c3cccc(C(F)(F)F)c3)ccc21` [Compound 840]: at SIRT1, the EC1.5 (concentration giving 1.5-fold activation) was under 1000 nM and the Emax is over 200%. In the assay with TNF, the IC50 is under 20 µM.
Taken in the same sequence, the figures for `CC1(C)CCN(C(=O)Nc2ccnc(OC[C@H](O)CO)n2)c2nc(-c3cccc(C(F)(F)F)c3)ccc21` [Compound 845] were under 1000 nM, over 200% and under 20 µM.
Taken in the same sequence, the figures for `O=C(Nc1cccc(N2CC3(CCO3)C2)n1)N1CCc2ccc(-c3cccc(C(F)(F)F)c3)nc21` [Compound 869] were under 1000 nM, over 200% and under 20 µM.
On the same counts, the results for `O=C(Nc1cc(OCC(O)CO)ccn1)N1CCC(F)(F)c2ccc(-c3cccc(C(F)(F)F)c3)nc21` (stereo not drawn) [Compound 860] are under 1000 nM, over 200% and under 20 µM.
Take `Cc1csc(NC(=O)N2CC(C)(C)Oc3ccc(-c4cccc(N5CC[C@@H](F)C5)c4)nc32)n1` [Compound 707]: on SIRT1, the EC1.5 (concentration giving 1.5-fold activation) was under 1000 nM and the Emax was over 200%. Also, the IC50 with TNF was at least 20 µM.
On the same counts, the results for `Cc1cncc(NC(=O)N2CCOc3cnc(-c4cccc(C(F)(F)F)c4)nc32)c1` [Compound 710] are under 1000 nM, over 200% and at least 20 µM.
On the same counts, the results for `O=C(Nc1ccc2nccn2c1)N1CCCOc2ccc(-c3cccc(Cl)c3)nc21` [Compound 880] are under 1000 nM, over 200% and under 20 µM.
As for `CC1CCN(C(=O)Nc2ccncn2)c2nc(-c3cccc(C(F)(F)F)c3)ccc21` (stereo not drawn) [Compound 805], at SIRT1, the EC1.5 (concentration giving 1.5-fold activation) was under 1000 nM and the Emax is over 200%. This compound yielded an IC50 in the assay on TNF of under 20 µM.
On the same counts, the results for `CC1CCN(C(=O)Nc2cccc(OC[C@@H](O)CO)n2)c2nc(-c3cccc(C(F)(F)F)c3)ccc21` (stereo partly drawn) [Compound 801] are under 1000 nM, over 200% and under 20 µM.
On the same counts, the results for `O=C(Nc1ccnc(OCC(O)CO)n1)N1CCCOc2ccc(-c3cccc(Cl)c3)nc21` (stereo not drawn) [Compound 876] are under 1000 nM, over 200% and under 20 µM.
Taken in the same sequence, the figures for `O=C(Nc1ccnc(N2CCC2)c1)N1CCOc2cnc(-c3cccc(C(F)(F)F)c3)nc21` [Compound 713] were under 1000 nM, over 200% and at least 20 µM.
With `O=C(Nc1cncc(OCC(O)CO)n1)N1CCC(F)(F)c2ccc(-c3cccc(C(F)(F)F)c3)nc21` (stereo not drawn) [Compound 813], at SIRT1, the EC1.5 (concentration giving 1.5-fold activation) is under 1000 nM and the Emax was over 200%. In the assay with TNF, this compound gave an IC50 of under 20 µM.
On the same counts, the results for `O=C(Nc1cnc(OC[C@H](O)CO)cn1)N1CCCOc2ccc(-c3cccc(Cl)c3)nc21` [Compound 878] are under 1000 nM, over 200% and under 20 µM.
On the same counts, the results for `O=C(Nc1ccnc(OCC(O)CO)n1)N1CCOc2ccc(-c3cccc(C(F)(F)F)c3)nc21` (stereo not drawn) [Compound 697] are under 1000 nM, over 200% and at least 20 µM.
On the same counts, the results for `O=C(Nc1ccnc(OCC(O)CO)n1)N1CCc2ccc(-c3cccc(C(F)(F)F)c3)nc21` (stereo not drawn) [Compound 874] are under 1000 nM, over 200% and at least 20 µM.
In the case of `COc1cc(NC(=O)N2CCCOc3ccc(-c4cccc(Cl)c4)nc32)nc(OC)n1` [Compound 873], on SIRT1, the EC1.5 (concentration giving 1.5-fold activation) is under 1000 nM and the Emax was over 200%. The compound further yielded an IC50 in the assay with TNF of at least 20 µM.
In the case of `CCN1CCCN(C(=O)Nc2ccnc(C)c2)c2nc(-c3cccc(Cl)c3)ccc21` [Compound 795], on SIRT1, the EC1.5 (concentration giving 1.5-fold activation) was under 1000 nM and the Emax was over 200%. The compound further came in with an IC50 with TNF of under 20 µM.
Taken in the same sequence, the figures for `O=C(Nc1cccc(N2CC3(CCO3)C2)n1)N1CCOc2ccc(-c3cccc(C(F)(F)F)c3)nc21` [Compound 823, N-(6-(1-oxa-6-azaspiro[3.3]heptan-6-yl)pyridin-2-yl)-6-(3-(trifluoromethyl)phenyl)-2H-pyrido[3,2-b][1,4]oxazine-4(3H)-carboxamide] were under 1000 nM, over 200% and at least 20 µM.
Taken in the same sequence, the figures for `O=C(Nc1ccc2nccnc2c1)N1CCCOc2ccc(-c3cccc(Cl)c3)nc21` [Compound 881] were under 1000 nM, over 200% and at least 20 µM.
On the same counts, the results for `N#Cc1cccc(-c2ccc3c(n2)N(C(=O)Nc2cccc(OC[C@H](O)CO)n2)CCC3)c1` [Compound 700] are under 1000 nM, over 200% and under 20 µM.
Turning to `CC1(C)CCN(C(=O)Nc2ccncn2)c2nc(-c3cccc(C(F)(F)F)c3)ccc21` [Compound 838], at SIRT1, the EC1.5 (concentration giving 1.5-fold activation) was under 1000 nM and the Emax is over 200%. For the same compound, in the assay on TNF, the IC50 is at least 20 µM.
On the same counts, the results for `CC1CCN(C(=O)Nc2ccncc2)c2nc(-c3cccc(C(F)(F)F)c3)ccc21` (stereo not drawn) [Compound 786, 4-methyl-N-(pyridin-4-yl)-7-(3-(trifluoromethyl)phenyl)-3,4-dihydro-1,8-naphthyridine-1(2H)-carboxamide] are under 1000 nM, over 200% and under 20 µM.
Take `COc1nccc(NC(=O)N2CCCC(=O)c3ccc(-c4cccc(C(F)(F)F)c4)nc32)n1` [Compound 830]: on SIRT1, the EC1.5 (concentration giving 1.5-fold activation) was under 1000 nM and the Emax is over 200%. For the same compound, the IC50 in the assay with TNF was at least 20 µM.
Taken in the same sequence, the figures for `CN(C)c1cccc(-c2ccc3c(n2)N(C(=O)Nc2cccc(OC[C@H](O)CO)n2)CCC3)c1` [Compound 699] were under 1000 nM, over 200% and under 20 µM.
Taken in the same sequence, the figures for `Cc1cc(NC(=O)N2CCCC(=O)c3ccc(-c4cccc(Cl)c4)nc32)ccn1` [Compound 750] were under 1000 nM, over 200% and at least 20 µM.
Taken in the same sequence, the figures for `O=C(Nc1cccnc1)N1CCOc2ccc(-c3cccc(C(F)(F)F)c3)nc21` [Compound 887] were under 1000 nM, over 200% and at least 20 µM.
Consider `COc1cc(NC(=O)N2CCCOc3ccc(-c4cccc(Cl)c4)nc32)ccn1` [Compound 882], for which, at SIRT1, the EC1.5 (concentration giving 1.5-fold activation) was under 1000 nM and the Emax is over 200%. In addition, in the assay on TNF, the IC50 is at least 20 µM.
On the same counts, the results for `Cc1cc(NC(=O)N2CCOc3cnc(-c4cccc(C(F)(F)F)c4)nc32)cc(C)n1` [Compound 711] are under 1000 nM, over 200% and at least 20 µM.
